Laboratory results from US8563714B2, “Bridged spiro [2.4] heptane derivatives as ALX receptor and/or FPRL2 agonists” (Actelion Pharmaceuticals Ltd., priority 2009, dated 2013).

Key:
human FPRL2 = target: T1, human FPRL2 (Homo sapiens, UniProt P25089); experiment: Intracellular calcium measurements (FLIPR), agonistic activity in HEK293-hFPRL2-Gα16 cells; format: cell-based; conditions: Fluo-4 calcium FLIPR, normalized to GLY14-Humanin 100 nM
T1 construct: expressed in transfected cells; host or cells: HEK293 (HEK293-hFPRL2-Gα16)
T1 sequence (P25089 1-353): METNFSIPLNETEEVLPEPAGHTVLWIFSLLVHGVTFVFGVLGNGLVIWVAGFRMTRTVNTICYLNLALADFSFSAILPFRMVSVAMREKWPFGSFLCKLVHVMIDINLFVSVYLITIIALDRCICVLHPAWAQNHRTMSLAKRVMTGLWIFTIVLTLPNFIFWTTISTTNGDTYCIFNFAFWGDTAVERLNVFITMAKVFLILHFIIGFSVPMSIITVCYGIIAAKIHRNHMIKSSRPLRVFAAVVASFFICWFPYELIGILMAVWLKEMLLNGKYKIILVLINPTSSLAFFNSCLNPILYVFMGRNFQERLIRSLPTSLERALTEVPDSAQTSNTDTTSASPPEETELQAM
Procedure, shortened: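 Peak values after baseline subtraction are expressed relative to 100 nM Gly14-Humanin; compounds diluted in assay buffer from 10 mM DMSO stocks.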

human ALX receptor = target: T2, human ALX receptor (Homo sapiens, UniProt P25090); experiment: Intracellular calcium measurements (FLIPR), agonistic activity in HEK293-hALXR-Gα16 cells; format: cell-based; conditions: Fluo-4 calcium FLIPR, normalized to WKYMVm 10 nM
T2 construct: expressed in transfected cells; host or cells: HEK293 (HEK293-hALXR-Gα16)
T2 sequence (P25090 1-351): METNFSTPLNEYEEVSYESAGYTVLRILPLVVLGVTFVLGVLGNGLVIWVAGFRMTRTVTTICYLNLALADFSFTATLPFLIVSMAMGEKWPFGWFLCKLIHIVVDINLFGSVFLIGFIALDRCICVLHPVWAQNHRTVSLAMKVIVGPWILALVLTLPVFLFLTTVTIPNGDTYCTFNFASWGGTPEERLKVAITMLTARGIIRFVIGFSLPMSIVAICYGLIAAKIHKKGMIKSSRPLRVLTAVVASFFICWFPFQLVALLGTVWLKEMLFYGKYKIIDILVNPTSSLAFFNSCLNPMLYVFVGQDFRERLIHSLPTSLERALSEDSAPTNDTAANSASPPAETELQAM
Procedure, shortened: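 HEK293 cells expressing hALXR and Gα16 were loaded with 1 μM Fluo-4 AM and 20 mM HEPES for 60 min at 37°C, then exposed to serially diluted compound. FLIPR fluorescence was read at ex 488/em 540 nm. Baseline-subtracted peak responses were normalized to 10 nM WKYMVm.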

SMILES	EC50 (human FPRL2) [nM]	EC50 (human ALX receptor) [nM]
NCCCCCNC(=O)[C@H]1[C@H](C(=O)Nc2ccc(Br)cc2)[C@H]2C=C[C@@H]1C21CC1 (relative stereo) [Example 340, (5R*)—N^5-(5-Aminopentyl)-(6R*)—N^6-(4-bromophenyl)-(4S*,7R*)-[4,7-ethenylene-spiro[2.4]heptane]-5,6-dicarboxamide]	255	30
Cc1onc(-c2ccccc2)c1CNC(=O)[C@H]1[C@H](C(=O)Nc2ccc(Br)cc2)[C@@H]2C=C[C@H]1C21CC1 (racemic) [Example 101, (5R*)—N^5-(4-Bromophenyl)-(6R*)—N^6-[(5-methyl-3-phenyl-isoxazol-4-yl)-methyl]-(4S*,7R*)-[4,7-ethenylene-spiro[2.4]heptane]-5,6-dicarboxamide]	457	812
CC(C)(C)OC(=O)N1CCC(CNC(=O)[C@H]2[C@H](C(=O)Nc3ccc(Br)cc3)[C@@H]3C=C[C@H]2C32CC2)CC1 (racemic) [Example 92, (5R*)—N^5-(4-Bromophenyl)-(6R*)—N^6—(N-tert-butoxycarbonyl-piperidin-4-yl-methyl)-(4S*,7R*)-[4,7-ethenylene-spiro[2.4]heptane]-5,6-dicarboxamide]	2670	204
O=C(NCC1CCNCC1)C1C(C(=O)Nc2ncc(Br)s2)C2C=CC1C21CC1 [Example 324, (5R)—N^5-(5-Bromo-thiazol-2-yl)-(6R)—N^6-(piperidin-4-yl-methyl)-(4S,7R)-[4,7-ethenylene-spiro[2.4]heptane]-5,6-dicarboxamide]	1540	5.7
CC(=O)c1csc(CNC(=O)[C@H]2[C@H](C(=O)NCCCN3CCN(C)CC3)[C@H]3C=C[C@@H]2C32CC2)n1 (racemic) [Example 268, (5R*)—N^5-(4-Acetyl-thiazol-2-yl-methyl)-(6R*)—N^6-(3-(4-methylpiperazin-1-yl)-propyl)-(4S*,7R*)-[4,7-ethenylene-spiro[2.4]heptane]-5,6-dicarboxamide]	22900	477
Cc1[nH]ncc1CCCNC(=O)[C@H]1[C@H](C(=O)Nc2ccc(Br)cc2)[C@@H]2C=C[C@H]1C21CC1 (racemic) [Example 88, (5R*)—N^5-(4-Bromophenyl)-(6R*)—N^6-(3-(5-methyl-1H-pyrazol-4-yl)-propyl)-(4S*,7R*)-[4,7-ethenylene-spiro[2.4]heptane]-5,6-dicarboxamide]	9420	168
COCCNC(=O)[C@H]1[C@H](C(=O)Nc2ncc(Br)s2)[C@@H]2C=C[C@H]1C21CC1 (racemic) [Example 276, (5R*)—N^5-(5-Bromothiazol-2-yl)-(6R*)—N^6-(2-methoxy-ethyl)-(4S*,7R*)-[4,7-ethenylene-spiro[2.4]heptane]-5,6-dicarboxamide]	> 25000	44
CCN(CC)CCCCNC(=O)[C@H]1[C@H](C(=O)NCc2nc(C(C)=O)cs2)[C@@H]2C=C[C@H]1C21CC1 (racemic) [Example 262, (5R*)—N^5-(4-Acetyl-thiazol-2-yl-methyl)-(6R*)—N^6-(4-diethylamino-butyl)-(4S*,7R*)-[4,7-ethenylene-spiro[2.4]heptane]-5,6-dicarboxamide]	106	97
O=C(NCCN1CCOCC1)[C@H]1[C@H](C(=O)Nc2ccc(Br)cc2)[C@@H]2C=C[C@H]1C21CC1 (racemic) [Example 80, (5R*)—N^5-(4-Bromophenyl)-(6R*)—N^6-(2-morpholino-ethyl)-(4S*,7R*)-[4,7-ethenylene-spiro[2.4]heptane]-5,6-dicarboxamide]	7870	97
CN(C)C(=O)CCC(=O)NC[C@H]1[C@H](C(=O)Nc2ccc(Br)cc2)[C@@H]2C=C[C@H]1C21CC1 (racemic) [Example 164, (5R*)—N^5-(4-Bromo-phenyl)-(6R*)-6-[(3-(N,N-dimethyl-aminocarbonyl)-propionyl-amino)-methyl]-(4S*,7R*)-[4,7-ethenylene-spiro[2.4]heptane]-5-carboxamide]	6820	80
O=C(NCCCCN1CCCC1)[C@H]1[C@H](C(=O)Nc2cc(F)c(Br)cc2F)[C@@H]2C=C[C@H]1C21CC1 [Example 314, (5R)—N^5-(4-Bromo-2,5-difluorophenyl)-(6R)—N^6-(4-pyrrolidino-butyl)-(4S,7R)-[4,7-ethenylene-spiro[2.4]heptane]-5,6-dicarboxamide]	204	103
O=C(NCCCO)[C@H]1[C@H](C(=O)Nc2ccc(Br)cc2)[C@@H]2CC[C@H]1C21CC1 (racemic) [Example 107, (5R*)—N^5-(4-Bromophenyl)-(6R*)—N^6-(3-hydroxy-propyl)-(4S*,7R*)-[4,7-ethylene-spiro[2.4]heptane]-5,6-dicarboxamide]	2270	1.8

Continued by falling EC50 (human FPRL2), values first:

EC50 (human FPRL2) [nM]	EC50 (human ALX receptor) [nM]	SMILES
2760	23	O=C(NC1CCNCC1)[C@H]1[C@H](C(=O)NCc2ccc(Br)cc2)[C@@H]2C=C[C@H]1C21CC1 (racemic) [Example 306, (5R*)—N^5-(4-Bromophenyl-methyl)-(6R*)—N^6-(piperidin-4-yl)-(4S*,7R*)-[4,7-ethenylene-spiro[2.4]heptane]-5,6-dicarboxamide]
2600	87	CC1(C(=O)NCC2C(C(=O)Nc3ccc(Br)cc3)C3C=CC2C32CC2)CC1(Cl)Cl (mixture of isomers) [Example 165, (5R*)—N^5-(4-Bromo-phenyl)-(6R*)-6-{[(2,2-dichloro-1-methyl-cyclopropylcarbonyl)-amino]-methyl}-(4S*,7R*)-[4,7-ethenylene-spiro[2.4]heptane]-5-carboxamide]
666	0.7	CN(C)CCCCCNC(=O)[C@H]1[C@H](C(=O)Nc2ccc(Br)cc2)[C@@H]2CC[C@H]1C21CC1 (racemic) [Example 109, (5R*)—N^5-(4-Bromophenyl)-(6R*)—N^6-(5-(dimethyl-amino)-pentyl)-(4S*,7R*)-[4,7-ethylene-spiro[2.4]heptane]-5,6-dicarboxamide]
647	3650	CC(C)(C)c1cc(NC(=O)[C@H]2[C@H](C(=O)NCCCCN3CCCC3)[C@H]3C=C[C@@H]2C32CC2)no1 (racemic) [Example 145, (5R*)—N^5-(5-tert-Butyl-isoxazol-3-yl)-(6R*)—N^6-(4-pyrrolidin-1-yl-butyl)-(4S*,7R*)-[4,7-ethenylene-spiro[2.4]heptane]-5,6-dicarboxamide]
405	4.9	O=C(NCCCN1CCCC1)[C@H]1[C@H](C(=O)Nc2ccc(Br)cc2)[C@@H]2C=C[C@H]1C21CC1 (racemic) [Example 30, (5R*)—N^5-(4-Bromophenyl)-(6R*)—N^6-(3-pyrrolidin-1-yl-propyl)-(4S*,7R*)-[4,7-ethenylene-spiro[2.4]heptane]-5,6-dicarboxamide]
366	10000	O=C(NCCCCN1CCCC1)[C@H]1[C@H](C(=O)NCc2ccc(F)c(C(F)(F)F)c2)[C@@H]2C=C[C@H]1C21CC1 (racemic) [Example 366, (5R*)—N^5-(4-Fluoro-3-trifluoromethylphenyl-methyl)-(6R*)—N^6-(4-pyrrolidino-butyl)-(4S*,7R*)-[4,7-ethenylene-spiro[2.4]heptane]-5,6-dicarboxamide]
